Laboratory results: patent US11110103B2, “Inhibitors of glucocorticoid receptor” (ORIC Pharmaceuticals, Inc., priority 2015, dated 2021)

The compounds below were run against T1, GR (Homo sapiens, UniProt P04150) (assay: In Vitro GR Luciferase Reporter Assay (antagonist assay)). Settings: CHO-K1-GR-MMTV-Luc reporter cells, 10 nM Dexamethasone, 18-24 hours.
T1 construct: expressed in transfected cells; host or cells: CHO-K1 (CHO-K1-GR-MMTV-Luc reporter cells)
T1 sequence (P04150 1-777): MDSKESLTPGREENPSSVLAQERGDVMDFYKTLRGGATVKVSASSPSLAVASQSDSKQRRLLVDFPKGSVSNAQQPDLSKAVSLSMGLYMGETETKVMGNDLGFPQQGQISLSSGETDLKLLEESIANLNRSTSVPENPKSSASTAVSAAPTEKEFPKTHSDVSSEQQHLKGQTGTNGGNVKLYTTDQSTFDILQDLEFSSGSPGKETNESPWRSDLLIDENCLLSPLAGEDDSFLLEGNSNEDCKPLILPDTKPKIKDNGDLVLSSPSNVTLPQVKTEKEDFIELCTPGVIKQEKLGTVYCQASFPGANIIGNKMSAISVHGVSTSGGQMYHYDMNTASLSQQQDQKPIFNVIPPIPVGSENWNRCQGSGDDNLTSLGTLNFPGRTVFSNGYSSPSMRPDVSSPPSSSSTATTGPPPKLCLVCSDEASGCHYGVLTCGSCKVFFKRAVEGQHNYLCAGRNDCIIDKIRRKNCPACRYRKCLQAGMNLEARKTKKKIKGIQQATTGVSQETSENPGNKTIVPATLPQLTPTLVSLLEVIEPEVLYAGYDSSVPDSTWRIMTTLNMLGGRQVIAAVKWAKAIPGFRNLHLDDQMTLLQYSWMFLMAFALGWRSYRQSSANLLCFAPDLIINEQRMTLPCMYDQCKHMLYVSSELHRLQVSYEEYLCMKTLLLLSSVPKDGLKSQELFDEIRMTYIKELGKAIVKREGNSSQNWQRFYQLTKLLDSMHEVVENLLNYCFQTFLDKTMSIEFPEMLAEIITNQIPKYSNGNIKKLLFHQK
Assay type: cell-based
Description: Cell Line: CHO-K1-GR-MMTV-Luc reporter cells
Culture Media: DMEM (with phenol red)+10% FBS
Assay Media: DMEM (without phenol red)+10% CSS
Culture CHO-K1-GR-MMTV-Luc reporter cells in 15 cm plates in Culture Media at conditions less than 90% confluence.
Prepare 200×DMSO 1:5 serial dilutions of control and test compounds in 96-well non-sterile V bottom plate in DMSO, 8 serial dilutions for each compound.
Add compounds: 5 ul of assay media diluted compounds were added to appropriate wells and followed a quick spin (1000 rpm, 10 sec) to bring media and cells to the bottom of plate. The plates were covered with SealMate film to avoid evaporation and placed in 37° C. incubator for approximately 18-24 hours.
Read plates: Equilibrate appropriate amount of Promega OneGlo luciferase reagent to room temperature. Remove the plates from incubator and add 25 uL of OneGlo reagent/well by multiple channel pipette and read the plates with Tecan F500 luminometer within 3 minutes.
The ability of the compounds disclosed herein to inhibit GR activity was quantified and the respective IC50 value was determined.

| SMILES | IC50 [nM] |
| --- | --- |
| CC#C[C@]1(O)CC[C@H]2[C@@H]3CCC4=CC(=O)CCC4=C3[C@@H](c3ccc(NS(=O)(=O)c4ccc(C)cc4)cc3)C[C@@]21C | > 100 |
| CC#C[C@]1(O)CC[C@H]2[C@@H]3CCC4=CC(=O)CCC4=C3[C@@H](c3cccc(C(C)O)c3)C[C@@]21C (some centres unmarked) | > 100 |
| CC#C[C@]1(O)CC[C@H]2[C@@H]3CCC4=CC(=O)CCC4=C3[C@@H](c3cccc(C4CC4)c3)C[C@@]21C | < 100 |
| CC#C[C@]1(O)CC[C@H]2[C@@H]3CCC4=CC(=O)CCC4=C3[C@@H](c3cccc(CC)c3)C[C@@]21C | < 100 |
| CC#C[C@]1(O)CC[C@H]2[C@@H]3CCC4=CC(=O)CCC4=C3[C@@H](c3cccc(COC)c3)C[C@@]21C | < 100 |
| CC#C[C@]1(O)CC[C@H]2[C@@H]3CCC4=CC(=O)CCC4=C3[C@@H](c3cccc(OC(C)C)c3)C[C@@]21C | > 100 |
| CC#C[C@]1(O)CC[C@H]2[C@@H]3CCC4=CC(=O)CCC4=C3[C@@H](c3cccc(C(C)(C)C)c3)C[C@@]21C | > 100 |
| CC#C[C@]1(O)CC[C@H]2[C@@H]3CCC4=CC(=O)CCC4=C3[C@@H](c3ccc(C)c(F)c3)C[C@@]21C | < 100 |
| CC#C[C@]1(O)CC[C@H]2[C@@H]3CCC4=CC(=O)CCC4=C3[C@@H](c3ccc(C(C)C)c(OC)c3)C[C@@]21C | < 100 |
| CC#C[C@]1(O)CC[C@H]2[C@@H]3CCC4=CC(=O)CCC4=C3[C@@H](c3ccc(C)c(OC)c3)C[C@@]21C | < 100 |
| CC#C[C@]1(O)CC[C@H]2[C@@H]3CCC4=CC(=O)CCC4=C3[C@@H](c3ccc(C)c(N(C)C)c3)C[C@@]21C | < 100 |
| CC#C[C@]1(O)CC[C@H]2[C@@H]3CCC4=CC(=O)CCC4=C3[C@@H](c3ccc(OC)c(C(C)C)c3)C[C@@]21C | < 100 |
| CC#C[C@]1(O)CC[C@H]2[C@@H]3CCC4=CC(=O)CCC4=C3[C@@H](c3ccc(C)c(N4CCC4)c3)C[C@@]21C | > 100 |
| CC#C[C@]1(O)CC[C@H]2[C@@H]3CCC4=CC(=O)CCC4=C3[C@@H](c3ccc(F)c(OC)c3)C[C@@]21C | > 100 |
| CC#C[C@]1(O)CC[C@H]2[C@@H]3CCC4=CC(=O)CCC4=C3[C@@H](c3ccc(Cl)c(N(C)C)c3)C[C@@]21C | > 100 |
| CC#C[C@]1(O)CC[C@H]2[C@@H]3CCC4=CC(=O)CCC4=C3[C@@H](c3ccc(F)c(N(C)C)c3)C[C@@]21C | > 100 |
| CC#C[C@]1(O)CC[C@H]2[C@@H]3CCC4=CC(=O)CCC4=C3[C@@H](c3ccc(Cl)c(C4CC4)c3)C[C@@]21C | > 100 |
| CC#C[C@]1(O)CC[C@H]2[C@@H]3CCC4=CC(=O)CCC4=C3[C@@H](c3c(F)cc(N4CCOCC4)cc3F)C[C@@]21C | < 100 |
| CC#C[C@]1(O)CC[C@H]2[C@@H]3CCC4=CC(=O)CCC4=C3[C@@H](c3c(F)cc(N4CCCC4)cc3F)C[C@@]21C | < 100 |
| CC#C[C@]1(O)CC[C@H]2[C@@H]3CCC4=CC(=O)CCC4=C3[C@@H](c3c(F)cc(N(C)CC)cc3F)C[C@@]21C | < 100 |
| CC#C[C@]1(O)CC[C@H]2[C@@H]3CCC4=CC(=O)CCC4=C3[C@@H](c3cc(F)c(N(C)C)c(F)c3)C[C@@]21C | < 100 |
| CC#C[C@]1(O)CC[C@H]2[C@@H]3CCC4=CC(=O)CCC4=C3[C@@H](c3c(F)cc(CC)cc3F)C[C@@]21C | < 100 |
| CC#C[C@]1(O)CC[C@H]2[C@@H]3CCC4=CC(=O)CCC4=C3[C@@H](c3cc(C)c(N(C)C)c(F)c3)C[C@@]21C | < 100 |
| CC#C[C@]1(O)CC[C@H]2[C@@H]3CCC4=CC(=O)CCC4=C3[C@@H](c3c(F)cc(C)cc3F)C[C@@]21C | < 100 |
| CC#C[C@]1(O)CC[C@H]2[C@@H]3CCC4=CC(=O)CCC4=C3[C@@H](c3cc(F)c(N(C)C)cc3F)C[C@@]21C | < 100 |

| SMILES | IC50 [nM] |
| --- | --- |
| CC#C[C@]1(O)CC[C@H]2[C@@H]3CCC4=CC(=O)CCC4=C3[C@@H](c3cc(F)c(OC)c(F)c3)C[C@@]21C | < 100 |
| CC#C[C@]1(O)CC[C@H]2[C@@H]3CCC4=CC(=O)CCC4=C3[C@@H](c3c(F)cc(OC)cc3F)C[C@@]21C | < 100 |
| CC#C[C@]1(OC(C)=O)CC[C@H]2[C@@H]3CCC4=CC(=O)CCC4=C3[C@@H](c3cc(F)c(C)c(F)c3)C[C@@]21C | < 100 |
| CC#C[C@]1(OC(=O)CC)CC[C@H]2[C@@H]3CCC4=CC(=O)CCC4=C3[C@@H](c3cc(F)c(C)c(F)c3)C[C@@]21C | > 100 |
| CC#C[C@]1(OC)CC[C@H]2[C@@H]3CCC4=CC(=O)CCC4=C3[C@@H](c3cc(F)c(C)c(F)c3)C[C@@]21C | > 100 |
| CC#C[C@]1(O)CC[C@H]2[C@@H]3CCC4=CC(=O)CCC4=C3[C@@H](c3ccc4c(c3)OCCCO4)C[C@@]21C | < 100 |
| CC#C[C@]1(O)[C@H](C)C[C@H]2[C@@H]3CCC4=CC(=O)CCC4=C3[C@@H](c3c(F)cc(N4CCOCC4)cc3F)C[C@@]21C | < 100 |
| CC#C[C@]1(O)[C@H](C)C[C@H]2[C@@H]3CCC4=CC(=O)CCC4=C3[C@@H](c3c(F)cc(N(C)C)cc3F)C[C@@]21C | < 100 |
| CC#C[C@]1(O)C2(CC2)C[C@H]2[C@@H]3CCC4=CC(=O)CCC4=C3[C@@H](c3ccc(S(=O)(=O)N(C)C)cc3)C[C@@]21C | < 100 |
| CC#C[C@]1(O)[C@H](C)C[C@H]2[C@@H]3CCC4=CC(=O)CCC4=C3[C@@H](c3ccc(C)c(F)c3)C[C@@]21C | < 100 |
| CC#C[C@]1(O)[C@H](C)C[C@H]2[C@@H]3CCC4=CC(=O)CCC4=C3[C@@H](c3ccc(S(=O)(=O)N(C)C)cc3)C[C@@]21C | < 100 |
| CC#C[C@]1(O)C2(CC2)C[C@H]2[C@@H]3CCC4=CC(=O)CCC4=C3[C@@H](c3c(F)cc(N(C)C)cc3F)C[C@@]21C | < 100 |
| CC#C[C@]1(O)[C@H](C)C[C@H]2[C@@H]3CCC4=CC(=O)CCC4=C3[C@@H](c3c(F)cc(N4CCC4)cc3F)C[C@@]21C | < 100 |
| CC#C[C@]1(O)[C@H](C)C[C@H]2[C@@H]3CCC4=CC(=O)CCC4=C3[C@@H](c3cc(F)c(N(C)C)c(F)c3)C[C@@]21C | < 100 |
| CC#C[C@]1(O)[C@H](CC)C[C@H]2[C@@H]3CCC4=CC(=O)CCC4=C3[C@@H](c3ccccc3)C[C@@]21C | > 100 |
| CC#C[C@]1(O)[C@H](C)C[C@H]2[C@@H]3CCC4=CC(=O)CCC4=C3[C@@H](c3ccc(S(=O)(=O)C(C)(C)C)cc3)C[C@@]21C | > 100 |
| CC#C[C@]1(O)[C@H](C)C[C@H]2[C@@H]3CCC4=CC(=O)CCC4=C3[C@@H](c3cc(F)c(C)c(F)c3)C[C@@]21C | > 100 |
| [2H]C([2H])([2H])C#C[C@]1(O)CC[C@H]2[C@@H]3CCC4=CC(=O)CCC4=C3[C@@H](c3ccc4c(c3)OCCO4)C[C@@]21C | < 100 |
| CC#C[C@]1(O)CC[C@H]2[C@@H]3CCC4=CC(=O)CCC4=C3[C@@H](c3ccc(S(=O)(=O)N4CCCCC4)cc3)C[C@@]21C [drawing 181] | < 100 |
| CC#C[C@]1(O)CC[C@H]2[C@@H]3CCC4=CC(=O)CCC4=C3[C@@H](c3ccc(S(=O)(=O)C(C)(C)C)cc3)C[C@@]21C [drawing 182] | < 100 |
| CC#C[C@]1(O)CC[C@H]2[C@@H]3CCC4=CC(=O)CCC4=C3[C@@H](c3cccc(C(C)C)c3)C[C@@]21C [drawing 185] | < 100 |
| CC#C[C@]1(O)CC[C@H]2[C@@H]3CCC4=CC(=O)CCC4=C3[C@@H](c3cccc(OCC)c3)C[C@@]21C [drawing 186] | < 100 |
| CC#C[C@]1(O)CC[C@H]2[C@@H]3CCC4=CC(=O)CCC4=C3[C@@H](c3ccc(C)c(C)c3)C[C@@]21C [drawing 192] | < 100 |
| CC#C[C@]1(O)CC[C@H]2[C@@H]3CCC4=CC(=O)CCC4=C3[C@@H](c3cc(F)cc(F)c3)C[C@@]21C [drawing 196] | < 100 |
| CC#C[C@]1(O)CC[C@H]2[C@@H]3CCC4=CC(=O)CCC4=C3[C@@H](c3ccc(F)c(C#N)c3)C[C@@]21C [drawing 199] | < 100 |
